We go through 21 compounds from US8426406B2, “Glucocorticoid receptor agonist comprising 2,2,4-trimethyl-6-phenyl-1,2-dihydroquinoline derivatives having substituted oxy group” (Santen Pharmaceutical Co., Ltd., priority 2008, dated 2013).

Each structure is given as a SMILES string.

The Emax is the greatest response seen or fitted, relative to the assay's reference.

In this experiment the test system is IL-6 production induced by lipopolysaccharide (LPS) in human corneal epithelial cells. The experiment in a line: Evaluation test for GR agonist activity: inhibition of LPS-induced IL-6 production in human corneal epithelial cells (HCE-T). It counts as cell-based. The settings on record: Corneal epithelial cell, 10 μL of 100 μM test compound solution per well, 4 hours incubation, efficacy relative to DEX. The method, then:
In order to evaluate a GR agonist activity of the present compound, the inhibitory effects on the IL-6 production induced by lipopolysaccharide (LPS) in human corneal epithelial cells. IL-6 levels in the conditioned medium were measured using the HTRF human IL-6 Kit (boehringer-Ingelheim, Cat No. 62IL6PEB), and the procedure was carried out according to the protocol attached to the kit. Hereinafter, the specific method will be described.
LPS solution: After LPS was dissolved in phosphate buffer solution (hereinafter referred to as PBS(−)), the resulting solution was diluted with 10% FBS-DMEM/F12 medium, whereby a 1 μg/mL LPS solution was prepared.
After a test compound was dissolved in dimethylsulfoxide (hereinafter referred to as DMSO), the resulting solution was diluted with 10% FBS-DMEM/F12 medium, whereby a 100 μM test compound solution was prepared. A 100 μM DEX solution was prepared by the same method, and the inhibitory ratio of IL-6 production of DEX was evaluated to use for calculating efficacy (% DEX).
Used cell: SV40-immortalized human corneal epithelial cells (HCE-T) (RIKEN)
1) HCE-T cells were harvested, and seeded at 2.0×10^4 cells/0.1 mL/well in a 96-well plate.
2) After incubation overnight, the medium was removed and a 80 μL of new 10% FBS-DMEM/Ham's F12 medium was added into each well.
3) A 10 μL of test compounds solution was added into each well.
4) A 10 μL of LPS solution was added into each well.
5) As a negative control, a 10 μL of 10% FBS-DMEM/Ham's F12 medium was added into each well instead of a test compound solution and a LPS solution.
6) As a positive control, a 10 μL of 10% FBS-DMEM/Ham's F12 medium containing 1% DMSO was added into each well instead of a test compound solution.
7) After 4 hours incubation, supernatants were collected and IL-6 levels in the supernatants were quantitated using the HTRF human IL-6 Kit.
8) The inhibition ratio of IL-6 production (%) was calculated according to the following equation.
The inhibition ratio of IL-6 production (%) was calculated according to the following equation. The inhibition ratio of IL-6 production(%)=100×[1−(IL-6 level in each group−mean value of IL-6 level in negative control)/(mean value of IL-6 level in positive control−mean value of IL-6 level in negative control)](%)
Furthermore, the inhibition ratio of IL-6 production (efficacy (% DEX)) was also calculated according to the following equation. Efficacy(% DEX)=100×{(mean value of IL-6 inhibition in compound-treated group)/(mean value of IL-6 inhibition in DEX-treated group)}(%) (Result and Discussion)
`COc1cc(OC(=O)c2ccccc2OC(C)=O)ccc1-c1ccc2c(c1COc1cc(F)ccc1C)C(C)=CC(C)(C)N2` [Compound 1-36, 6-[4-(2-Acetoxybenzoyloxy)-2-methoxyphenyl]-5-(5-fluoro-2-methylphenoxymethyl)-2,2,4-trimethyl-1,2-dihydroquinoline] came in with a maximal effect (Emax) of 75%.
The value for `COc1cc(OC(=O)c2cccnc2)ccc1-c1ccc2c(c1COC(=O)c1ccc(C)cc1)C(C)=CC(C)(C)N2` [Compound 1-133, 5-(4-Methylbenzoyloxymethyl)-6-[2-methoxy-4-(pyridin-3-ylcarbonyloxy)phenyl]-2,2,4-trimethyl-1,2-dihydroquinoline] was 74%; that for `COc1cc(OS(=O)(=O)C2CC2)ccc1-c1ccc2c(c1COc1cc(F)ccc1C)C(C)=CC(C)(C)N2` [Compound 4-14, 6-(4-Cyclopropylsulfonyloxy-2-methoxyphenyl)-5-(5-fluoro-2-methylphenoxymethyl)-2,2,4-trimethyl-1,2-dihydroquinoline] was 80%; that for `COc1cc(OC(=O)c2ccccc2C)ccc1-c1ccc2c(c1COC(=O)c1ccc(C)s1)C(C)=CC(C)(C)N2` [Compound 1-143, 6-[2-Methoxy-4-(2-methylbenzoyloxy)phenyl]-5-(5-methylthiophen-2-ylcarbonyloxymethyl)-2,2,4-trimethyl-1,2-dihydroquinoline] was 96%.
As to `COc1cc(OC(=O)Nc2ccc(Cl)cc2)ccc1-c1ccc2c(c1COC(=O)c1ccc(C)s1)C(C)=CC(C)(C)N2` [Compound 6-27, 6-[4-(4-Chlorophenylaminocarbonyloxy)-2-methoxyphenyl]-5-(5-methylthiophen-2-ylcarbonyloxymethyl)-2,2,4-trimethyl-1,2-dihydroquinoline], the maximal response (Emax) was 94%.
The value for `COc1cc(OC(=O)C(C)(C)C)ccc1-c1ccc2c(c1COc1cc(F)ccc1C)C(C)=CC(C)(C)N2` [Compound 1-58, 6-(4-t-Butylcarbonyloxy-2-methoxyphenyl)-5-(5-fluoro-2-methylphenoxymethyl)-2,2,4-trimethyl-1,2-dihydroquinoline] was 76%; that for `CCN(CCN(C)C)C(=O)Oc1ccc(-c2ccc3c(c2COc2cc(F)ccc2C)C(C)=CC(C)(C)N3)c(OC)c1` [Compound 6-20, 6-[4-[N-(2-Dimethylaminoethyl)-N-ethylaminocarbonyloxy]-2-methoxyphenyl]-5-(5-fluoro-2-methylphenoxymethyl)-2,2,4-trimethyl-1,2-dihydroquinoline] was 79%; that for `COc1cc(OS(=O)(=O)C2CC2)ccc1-c1ccc2c(c1COC(=O)c1ccc(C)s1)C(C)=CC(C)(C)N2` [Compound 4-34, 6-(4-Cyclopropylsulfonyloxy-2-methoxyphenyl)-5-(5-methylthiophen-2-ylcarbonyloxymethyl)-2,2,4-trimethyl-1,2-dihydroquinoline] was 86%.
The value for `COc1cc(OC(=O)c2ccc(Cl)cc2)ccc1-c1ccc2c(c1COC(=O)c1ccc(C)s1)C(C)=CC(C)(C)N2` [Compound 1-141, 6-[4-(4-Chlorobenzoyloxy)-2-methoxyphenyl]-5-(5-methylthiophen-2-ylcarbonyloxymethyl)-2,2,4-trimethyl-1,2-dihydroquinoline] was 78%; that for `COc1cc(OS(=O)(=O)C(C)C)ccc1-c1ccc2c(c1COC(=O)c1ccc(C)s1)C(C)=CC(C)(C)N2` [Compound 4-29, 6-(4-Isopropylsulfonyloxy-2-methoxyphenyl)-5-(5-methylthiophen-2-ylcarbonyloxymethyl)-2,2,4-trimethyl-1,2-dihydroquinoline] was 92%; that for `CCCS(=O)(=O)Oc1ccc(-c2ccc3c(c2CNc2cc(F)ccc2C)C(C)=CC(C)(C)N3)c(OC)c1` [Compound 4-21, 5-(5-Fluoro-2-methylphenylaminomethyl)-6-(2-methoxy-4-propylsulfonyloxyphenyl)-2,2,4-trimethyl-1,2-dihydroquinoline] was 82%.
The same measure for `COc1cc(OC(=O)c2ccncc2)ccc1-c1ccc2c(c1COC(=O)c1ccc(C)s1)C(C)=CC(C)(C)N2` [Compound 1-156, 6-[2-Methoxy-4-(pyridin-4-ylcarbonyloxy)phenyl]-5-(5-methylthiophen-2-ylcarbonyloxymethyl)-2,2,4-trimethyl-1,2-dihydroquinoline]: 90%.
Compound `COc1ccc([N+](=O)[O-])cc1OCc1c(-c2ccc(OC(=O)c3ccsc3)cc2OC)ccc2c1C(C)=CC(C)(C)N2` [Compound 1-81, 5-(2-Methoxy-5-nitrophenoxymethyl)-6-[2-methoxy-4-(thiophen-3-ylcarbonyloxy)phenyl]-2,2,4-trimethyl-1,2-dihydroquinoline] gave a maximal effect (Emax) of 76%.
The same measure for `COc1ccccc1NCc1c(-c2ccc(OS(C)(=O)=O)cc2OC)ccc2c1C(C)=CC(C)(C)N2` [Compound 4-20, 6-(2-Methoxy-4-methylsulfonyloxyphenyl)-5-(2-methoxyphenylaminomethyl)-2,2,4-trimethyl-1,2-dihydroquinoline]: 75%; for `COc1cc(OC(=O)c2ccccc2SC)ccc1-c1ccc2c(c1COC(=O)c1ccc(C)s1)C(C)=CC(C)(C)N2` [Compound 1-151]: 90%.
The value for `COc1cc(OC(=O)c2cccnc2OC)ccc1-c1ccc2c(c1COC(=O)c1ccc(C)s1)C(C)=CC(C)(C)N2` [Compound 1-166, 6-[2-Methoxy-4-(2-methoxypyridin-3-ylcarbonyloxy)phenyl]-5-(5-methylthiophen-2-ylcarbonyloxymethyl)-2,2,4-trimethyl-1,2-dihydroquinoline] was 91%.
For `COc1cc(OC(=O)N2CCOCC2)ccc1-c1ccc2c(c1COC(=O)c1ccc(C)s1)C(C)=CC(C)(C)N2` [Compound 6-26, 6-[2-Methoxy-4-(morpholin-4-ylcarbonyloxy)phenyl]-5-(5-methylthiophen-2-ylcarbonyloxymethyl)-2,2,4-trimethyl-1,2-dihydroquinoline], the Emax stood at 84%.
The value for `COc1ccccc1NCc1c(-c2ccc(OC(=O)c3occc3C)cc2OC)ccc2c1C(C)=CC(C)(C)N2` [Compound 1-114, 6-[2-Methoxy-4-(3-methylfuran-2-ylcarbonyloxy)phenyl]-5-(2-methoxyphenylaminomethyl)-2,2,4-trimethyl-1,2-dihydroquinoline] was 87%; that for `COc1cc(OC(=O)c2cccnc2C)ccc1-c1ccc2c(c1CNc1cc(F)ccc1C)C(C)=CC(C)(C)N2` [Compound 1-122, 5-(5-Fluoro-2-methylphenylaminomethyl)-6-[2-methoxy-4-(2-methylpyridin-3-ylcarbonyloxy)phenyl]-2,2,4-trimethyl-1,2-dihydroquinoline] was 89%; that for `COc1cc(OC(=O)c2ccc(C)o2)ccc1-c1ccc2c(c1COc1cc(F)ccc1C)C(C)=CC(C)(C)N2` [Compound 1-48, 5-(5-Fluoro-2-methylphenoxymethyl)-6-[2-methoxy-4-(5-methylfuran-2-ylcarbonyloxy)phenyl]-2,2,4-trimethyl-1,2-dihydroquinoline] was 73%.
The compound `COc1ccccc1C(=O)Oc1ccc(-c2ccc3c(c2COc2cc(F)ccc2C)C(C)=CC(C)(C)N3)c(OC)c1` [Compound 1-6, 5-(5-Fluoro-2-methylphenoxymethyl)-6-[2-methoxy-4-(2-methoxybenzoyloxy)phenyl]-2,2,4-trimethyl-1,2-dihydroquinoline] returned an Emax of 93%.
